This passage reports Activity, fold change (FC) and EC50 results from ChEMBL document CHEMBL4699637, “Glycosylated Phenols and an Unprecedented Diacid from the Saudi Plant Cissus rotundifolia” (J Nat Prod, 2020).

The structures appear in SMILES notation. pEC50: −log10 of the molar value. Active and inactive are the calls of the source. No cut-off for these calls is given here.

One test concerns Huh-7. The test can be described thus: Activation of glucose transporter in human Huh-7 cells assessed as increase in glucose uptake at 800 ug/ml preincubated for 30 mins followed by […] addition and measured after 45 mins by fluorescence assay. The test is classed as cell-based. The following applies: dose 800.0 µg/ml, time 75.0 min.
A short description of test [1]: Activation of glucose transporter in human Huh-7 cells assessed as increase in glucose uptake preincubated for 30 mins followed by 2-NDBG addition and measured after 45 mins by fluorescence assay.

With `O=C(O)/C=C\c1ccc(O[C@@H]2O[C@H](CO)[C@@H](O)[C@H](O)[C@H]2O)cc1`, in the test with Huh-7, the result was inactive.

Consider `O=c1cc(-c2ccc(O)cc2)oc2cc(O)c([C@@H]3O[C@H](CO)[C@@H](O)[C@H](O)[C@H]3O[C@@H]3O[C@H](CO)[C@@H](O)[C@H](O)[C@H]3O)c(O)c12`, for which the result in the test with Huh-7 was inactive.

Regarding `O=c1cc(-c2ccc(O)cc2)oc2c([C@@H]3O[C@H](CO)[C@@H](O)[C@H](O)[C@H]3O[C@@H]3O[C@H](CO)[C@@H](O)[C@@H]3O)c(O)cc(O)c12`, the result in the test with Huh-7 was inactive.

Turning to `O=c1cc(-c2ccc(O)c(O)c2)oc2c([C@@H]3O[C@H](CO)[C@@H](O)[C@H](O)[C@H]3O[C@@H]3O[C@H](CO)[C@@H](O)[C@@H]3O)c(O)cc(O)c12`, the result in the test with Huh-7 was inactive.

By pEC50 is commonly meant −log10 of the EC50, conventionally taken in molar units. For the compound `O=C(/C=C/c1ccc(O)cc1)O[C@@H]1O[C@H](CO)[C@@H](O)[C@H](O)[C@H]1O`, the fold change (FC) with Huh-7 (filed as activator) was 2. The pEC50 in test [1] was 5.11.

Regarding `O=C1OC[C@H]2O[C@@](CO)(O[C@H]3O[C@H](COC(=O)[C@H]4[C@H]1[C@@H](c1ccc(O)cc1)[C@@H]4c1ccc(O)cc1)[C@@H](O)[C@H](O)[C@H]3O)[C@@H](O)[C@@H]2O`, the outcome in the test with Huh-7 was inactive.

Take `CC(/C=C/C(=O)O)=C\C=C\C[C@H](O[C@@H]1O[C@H](CO)[C@@H](O)[C@H](O)[C@H]1O)[C@H](C)CC(=O)O`: the result with Huh-7 was inactive.
